Values of other authors in patent publication US20090180950A1, “Polychromatic, diversely-sized particles for angiography” (The Trustees of Columbia University in the City of New York, priority 2006, published 2009).

Test system: plasma protein
Settings: fluorescein

Compound: O=C1OC2(c3ccc(O)cc3Oc3cc(O)ccc32)c2ccccc21 [fluorescein, Sodium fluorescein]
- bound to plasma protein (fraction bound): 70-80%
- unbound (free) fraction (fraction not bound to plasma protein): 20-30%
